The results in this text go back to ChEMBL document CHEMBL3045756, “Design, synthesis, antifungal activity, and ADME prediction of functional analogues of terbinafine” (Med Chem Res, 2009).

In brackets after ≈: the same amount, converted by molar mass.

The test system of one data set is Candida albicans. Description: Antifungal activity against Candida albicans NCIM 3557 after 48 hr by agar streak dilution method. It is filed as functional. To be noted: NCIM 3557, 48 h.
Data set [1] in a line: Acute toxicity in po dosed Mus musculus (mouse). To be noted: in vivo. It is filed as organism-based.

As to `CN(Cc1cc2ccccc2o1)Cc1cccc2cccnc12`, in the data set with Candida albicans, the MIC is greater than 100 µg/mL.
`CN(Cc1cccc2cccnc12)Cc1cccc2cccnc12` came in with an MIC in the data set on Candida albicans of 4 µg/mL (≈ 12.8 µM). This molecule displayed an LD50 in data set [1] of 700 mg/kg.
Take `CN(Cc1ccc2ccccc2c1)Cc1cccc2cccnc12`: inhibition of growth against Candida albicans (MIC) required 8 µg/mL (≈ 25.6 µM). The molecule further showed an LD50 in data set [1] greater than 2000 mg/kg.
Consider `CN(Cc1ccc(-c2ccccc2C#N)cc1)Cc1cccc2cccnc12`, for which the MIC against Candida albicans was greater than 100 µg/mL.
Turning to `CN(Cc1ccc([N+](=O)[O-])cc1)Cc1cccc2cccnc12`, the MIC against Candida albicans amounted to 25 µg/mL (≈ 81.3 µM). The LD50 in data set [1] was greater than 2000 mg/kg.
In the data set on Candida albicans, `CN(Cc1ccc(Cl)cc1)Cc1cccc2cccnc12` registered an MIC of 75 µg/mL (≈ 253 µM).
In the case of `CN(Cc1nc2cc(Cl)ccc2[nH]1)Cc1cccc2cccnc12`, the MIC against Candida albicans amounted to 10 µg/mL (≈ 29.7 µM). Besides, the LD50 in data set [1] was greater than 2000 mg/kg.
In the data set with Candida albicans, `CN(Cc1nc2cc([N+](=O)[O-])ccc2[nH]1)Cc1cccc2cccnc12` returned an MIC of 25 µg/mL (≈ 72 µM). Besides, in data set [1], the LD50 is greater than 2000 mg/kg.
In the data set with Candida albicans, `Cc1ccc2[nH]c(CN(C)Cc3cccc4cccnc34)nc2c1` registered an MIC greater than 100 µg/mL.
`CN(Cc1nc2ccccc2[nH]1)Cc1cccc2cccnc12`: the MIC against Candida albicans was 40 µg/mL (≈ 132 µM).

Broadly, the MIC is the least concentration at which growth counts as inhibited. By LD50 is commonly meant the dose expected to kill half of the subjects tested.
